Measured values reported in patent US10689365B2, “Substituted 2-alkylimidazolylcarboxamides as pesticides” (Bayer CropScience Aktiengesellschaft, priority 2016, dated 2020).
Read-outs that look alike come from different tables or passages of the source.

Assays:
[1] = log P by HPLC on reversed-phase (C18) columns, OECD Guideline 117; format: physicochemical; conditions: for chromatographic logP: reversed-phase (C18) HPLC column
Procedure: The log P values were determined in accordance with OECD Guideline 117 (EC Directive 92/69/EEC) by HPLC (high-performance liquid chromatography) using reversed-phase (RP) columns (C18), by the following methods:
[a] The LC-MS determination in the acidic range was carried out at pH 2.7 with 0.1% aqueous formic acid and acetonitrile (contains 0.1% formic acid) as mobile phases; linear gradient from 10% acetonitrile to 95% acetonitrile.
[b] LC-MS determination in the neutral range was carried out at pH 7.8 with 0.001 molar aqueous ammonium hydrogencarbonate solution and acetonitrile as mobile phases; linear gradient from 10% acetonitrile to 95% acetonitrile.

Aphis gossypii = Aphis gossypii - spray test (APHIGO S), cotton plants; format: in vivo; conditions: 144 h, 6 dat, read-out: % efficacy
Procedure: Aphis gossypii—Spray Test (APHIGO S)
(§1) Solvent: 14 parts by weight of dimethylformamide
(§2) Emulsifier: alkylaryl polyglycol ether
(§3) To produce a suitable active compound preparation, 1 part by weight of active compound is dissolved using the stated parts by weight of solvent and made up with water containing an emulsifier concentration of 1000 ppm until the desired concentration is attained. To produce further test concentrations, the formulation is diluted with emulsifier-containing water. If the addition of ammonium salts or/and penetrants is required, these are each added in a concentration of 1000 ppm to the formulation solution.
Cotton plants (Gossypium hirsutum) heavily infested by the cotton aphid (Aphis gossypii) are sprayed with an active ingredient formulation of the desired concentration.
After the desired time, the kill in % is determined. 100% means that all the aphids have been killed; 0% means that no aphids have been killed.

Myzus persicae [2] = experiment: Myzus persicae - drench test (MYZUPE D), Savoy cabbage in soil; format: in vivo; conditions: 240 h, 10 dat, read-out: % efficacy
Procedure: Myzus persicae—Drench Test (MYZUPE D)
To produce a suitable active compound preparation, 1 part by weight of active compound is mixed with the specified amounts of solvent and emulsifier, and the concentrate is diluted with water to the desired concentration, it being necessary to include the volume of soil which is drenched in the calculation. It should be ensured that a concentration of 40 ppm of emulsifier in the soil is not exceeded. To produce further test concentrations, water is used for dilution.
Savoy cabbage (Brassica oleracea) in pots with soil and infested by all stages of the green peach aphid (Myzus persicae) is watered with an active compound preparation of the desired concentration.
(§4) After the desired period of time, the efficacy in % is determined. 100% means that all the aphids have been killed; 0% means that no aphids have been killed.

Myzus persicae [3] = experiment: Myzus persicae - spray test (MYZUPE), Chinese cabbage leaf discs; format: in vivo; conditions: foliar; for percent efficacy (aphid mortality) at 20 g/ha / Emax at 20 g/ha: 20 g of ai/ha; for percent efficacy (aphid mortality) at 100 g/ha: 100 g of ai/ha; for Emax at 20 g/ha: read-out: % efficacy
Procedure: Myzus persicae—Spray Test (MYZUPE)
Solvent: 78.0 parts by weight of acetone • • 1.5 parts by weight of dimethylformamide
as §2
as §3, with “water.” for “water. If the addition of ammonium salts or/and penetrants is required, these are each added in a concentration of 1000 ppm to the formulation solution.”
Discs of Chinese cabbage leaves (Brassica pekinensis) infested by all stages of the green peach aphid (Myzus persicae) are sprayed with an active compound preparation of the desired concentration.
as §4

Myzus persicae [4] = experiment: Myzus persicae - oral test (MYZUPE O); format: in vivo; conditions: read-out: % efficacy
Procedure: Myzus persicae—Oral Test (MYZUPE O)
(§5) Solvent: 100 parts by weight of acetone
(§6) To produce a suitable preparation of active compound, 1 part by weight of active compound is dissolved using the specified parts by weight of solvent and made up with water until the desired concentration is attained.
(§7) 50 μl of the active compound preparation are transferred into microtitre plates and made up to a final volume of 200 μl with 150 μl of IPL41 insect medium (33%+15% sugar). Subsequently, the plates are sealed with parafilm, which a mixed population of green peach aphids (Myzus persicae) within a second microtitre plate is able to puncture and imbibe the solution through it.
as §4

Myzus persicae [5] = experiment: Myzus persicae - spray test (Chinese cabbage leaf discs); format: in vivo; conditions: application rate 500 g/ha, after 5-6 days; for pest or weed control at 500 g/ha: Myzus persicae, foliar, read-out: efficacy
Procedure: Myzus persicae—Spray Test
Solvent: 78 parts by weight of acetone • • 1.5 parts by weight of dimethylformamide
as §2
as §3, with “water.” for “water. If the addition of ammonium salts or/and penetrants is required, these are each added in a concentration of 1000 ppm to the formulation solution.”
Discs of Chinese cabbage leaves (Brassica pekinensis) infested by all stages of the green peach aphid (Myzus persicae) are sprayed with an active ingredient formulation of the desired concentration.
After 5-6 days, the efficacy in % is determined. 100% means that all the aphids have been killed; 0% means that no aphids have been killed.

Myzus persicae [6] = experiment: Myzus persicae - oral test; format: in vivo; conditions: application rate 20 ppm, after 5 days; for pest or weed control at 20 ppm: Myzus persicae, po, 120 h, read-out: efficacy
Procedure: as §5, §6, §7
After 5 days, the efficacy in % is determined. 100% means that all the aphids have been killed; 0% means that no aphids have been killed.

Myzus persicae [7] = experiment: Myzus persicae - spray test (MYZUPE S), bell pepper plants; format: in vivo; conditions: 144 h, 6 dat, read-out: % efficacy
Procedure: Myzus persicae—Spray Test (MYZUPE S)
as §1, §2
as §3, with “with” for “using”, “specified” for “stated”
Bell pepper plants (Capsicum annuum) severely infested with the green peach aphid (Myzus persicae) are treated by spraying with the active ingredient formulation in the desired concentration.
After the desired time, the kill in % is determined. 100% means that all the animals have been killed; 0% means that no animals have been killed.

[8] = acidic range, pH 2.7, 0.1% aqueous formic acid/acetonitrile, read-out: logP[a]
[9] = neutral range, pH 7.8, aqueous ammonium hydrogencarbonate/acetonitrile, read-out: logP[n]
[10] = acidic range, pH 2.7, 0.1% aqueous formic acid/acetonitrile
[11] = neutral range, pH 7.8, aqueous ammonium hydrogencarbonate/acetonitrile

| Structure (SMILES) | chromatographic logP [1, 8] | chromatographic logP [1, 9] | Emax at 0.8 ppm (Aphis gossypii) [%] | Emax at 4 ppm (Aphis gossypii) [%] | Emax at 0.16 ppm (Myzus persicae [2]) [%] | percent efficacy (aphid mortality) at 100 g/ha (Myzus persicae [3]; 120 h, 5 dat) [%] | Emax at 4 ppm (Myzus persicae [4]; 120 h, 5 dat) [%] | pest or weed control at 500 g/ha (Myzus persicae [5]) [%] | pest or weed control at 20 ppm (Myzus persicae [6]) [%] | also measured |
| --- | --- | --- | --- | --- | --- | --- | --- | --- | --- | --- |
| CCSCc1ncc(C(=O)N(C)c2cccnc2)n1C [Example I-1-27] | 0.46 | 1.18 | 98 | 100 | 98 | 90 | 100 | 90 | 100 | percent efficacy (aphid mortality) at 20 g/ha (Myzus persicae [3]; 120 h, 5 dat): 90% |
| CN(C(=O)c1cnc(CSc2ccccc2Cl)n1C)c1cccnc1 [Example I-1-39] | 1.41 | 1.99 | 30 | 95 |  | 90 | 100 | 90 | 100 | percent efficacy (aphid mortality) at 20 g/ha (Myzus persicae [3]; 120 h, 5 dat): 90% |
| CN(C(=O)c1cnc(Cn2ccc(C(F)(F)F)n2)n1C)c1cccnc1 [Example I-1-44] | 1.46 | 1.64 | 55 | 99 | 90 |  | 100 | 100 | 100 | percent efficacy (aphid mortality) at 20 g/ha (Myzus persicae [3]; 96 h, 4 dat): 90%; percent efficacy (aphid mortality) at 100 g/ha (Myzus persicae [3]; 96 h, 4 dat): 90% |
| CN(C(=O)c1cnc(CSC(C)(C)C)n1C)c1cccnc1 [Example I-1-33] | 0.97 | 1.67 |  | 75 | 90 | 90 | 100 | 100 | 100 | Emax at 20 g/ha (Myzus persicae [3]; 120 h, 5 dat): 100% |
| CN(C(=O)c1cnc(CSc2cccc(Cl)c2)n1C)c1cccnc1 [Example I-1-40] | 1.55 | 2.11 |  |  |  | 90 | 100 | 90 | 100 |  |
| CN(C(=O)c1cnc(Cn2cc(C(F)(F)F)cn2)n1C)c1cccnc1 [Example I-1-45] | 1.34 | 1.59 |  |  | 80 |  | 100 | 90 | 100 | percent kill (mortality) of aphids at a fixed dose at 0.8 ppm (Aphis gossypii): 98%; percent kill (mortality) of aphids at a fixed dose at 4 ppm (Aphis gossypii): 100%; percent efficacy (aphid mortality) at 100 g/ha (Myzus persicae [3]; 96 h, 4 dat): 100% |
| Cc1ncc(C(=O)Nc2cccnc2)n1C [reference compound] |  |  |  |  |  | 70 |  |  |  | Emax at 20 g/ha (Myzus persicae [3]; 120 h, 5 dat): 0% |
| CN(C(=O)c1cnc(CSc2ccccc2)n1C)c1cccnc1 [Example I-1-38] | 1.14 | 1.73 | 60 |  |  |  | 100 | 90 | 90 | percent kill (mortality) of aphids at a fixed dose at 4 ppm (Aphis gossypii): 100% |
| CN(C(=O)c1cnc(Cn2ccnn2)n1C)c1cccnc1 [Example I-1-46] | 0.05 | 0.42 |  |  |  |  |  | 100 | 100 | percent efficacy (aphid mortality) at 20 g/ha (Myzus persicae [3]; 144 h, 6 dat): 90%; percent efficacy (aphid mortality) at 100 g/ha (Myzus persicae [3]; 144 h, 6 dat): 90%; Emax at 4 ppm (Myzus persicae [4]; 144 h, 6 dat): 100% |
| Cc1nc(C(=O)Nc2cccnc2)c[nH]1 [Prior art WO2011/009804 (Ex. 14), reference compound] |  |  |  |  |  | 0 | 0 |  |  | percent efficacy (aphid mortality) at 20 g/ha (Myzus persicae [3]; 120 h, 5 dat): 0% |
| COC(=O)CSCc1ncc(C(=O)N(C)c2cccnc2)n1C [Example I-1-37] | 0.35 | 1.04 |  |  |  |  | 100 | 100 | 100 |  |
| CN(C(=O)c1cnc(CSc2ncccn2)n1C)c1cccnc1 [Example I-1-42] | 0.27 | 1.01 |  |  |  | 70 | 90 | 100 | 100 |  |
| CN(C(=O)c1cnc(Cn2cccn2)n1C)c1cccnc1 [Example I-1-43, N,1-Dimethyl-2-(1H-pyrazol-1-ylmethyl)-N-(pyridin-3-yl)-1H-imidazole-5-carboxamide] | 0.35 | 0.81 | 30 | 98 | 70 |  | 100 | 100 | 100 | percent efficacy (aphid mortality) at 20 g/ha (Myzus persicae [3]; 96 h, 4 dat): 90%; percent efficacy (aphid mortality) at 100 g/ha (Myzus persicae [3]; 96 h, 4 dat): 90% |
| Cc1ncc(C(=O)N(C)c2cccnc2)n1C [reference compound] |  |  |  | 40 | 30 |  |  |  |  | percent kill (mortality) of aphids at a fixed dose at 0.8 ppm (Aphis gossypii): 0%; Emax at 0.16 ppm (Myzus persicae [7]): 0% |
| CN(C(=O)c1cnc(CSc2ccc(Cl)cc2)n1C)c1cccnc1 [Example I-1-41] | 1.57 | 2.07 | 35 | 100 |  | 90 | 100 | 90 | 100 | Emax at 20 g/ha (Myzus persicae [3]; 120 h, 5 dat): 70% |
| CCc1ncc(C(=O)N(C)c2cccnc2)n1C [reference compound] |  |  |  | 45 | 0 |  |  |  |  | percent kill (mortality) of aphids at a fixed dose at 0.8 ppm (Aphis gossypii): 0%; Emax at 0.16 ppm (Myzus persicae [7]): 0% |
| CCOCc1ncc(C(=O)N(C)c2cccnc2)n1C [Example I-1-64] |  |  |  |  |  |  |  |  |  | logP[a] [1, 10]: 0.18; logP[n] [1, 11]: 0.92; efficacy (Myzus persicae [5]): 100%; efficacy (Myzus persicae [6]): 100% |
| O=C(Nc1cccnc1)c1c[nH]cn1 [Prior art WO 2011/009804 (Ex. 13), reference compound] |  |  |  |  |  |  |  |  |  | percent efficacy (aphid mortality) at 20 g/ha (Myzus persicae [3]; 144 h, 6 dat): 0%; percent efficacy (aphid mortality) at 100 g/ha (Myzus persicae [3]; 144 h, 6 dat): 0%; Emax at 4 ppm (Myzus persicae [4]; 144 h, 6 dat): 0% |
| CN(C(=O)c1cnc(COCC2CC2)n1C)c1cccnc1 [Example I-1-23] |  |  |  |  |  |  |  |  |  | logP[a] [1, 10]: 0.67; logP[n] [1, 11]: 1.29; efficacy (Myzus persicae [5]): 100%; efficacy (Myzus persicae [6]): 100% |
